Converted amounts (≈) assume the structure as drawn.
How the values were obtained:
[1] = Absorption of HMLO in vitro and in vivo in the presence of bile acids; settings: compared with pure active ingredient and known preparations
Text: This improvement is observed also in comparison with the oily preparation, although the same mechanism for affecting the absorption obviously forms the basis for this preparation.

[2] = Effect of different auxiliaries on the solubility of HMLO active ingredient in water at 293° K; assay type: physicochemical; settings: for solubility: water, 293° K
Description: Effect of Different Auxiliaries on the Solubility of HMLO Active Ingredient in Water at 293° K.

[3] = cited from earlier work
[4] = In vivo absorption of HMLO active ingredient by rabbits after oral administration as a function of the auxiliaries used; settings: 12 mg/kg
Text: In Vivo Absorption of HMLO Active Ingredient by the Rabbits After Oral Administration as a Function of the Auxiliaries Used.

## CCCCCCCCCCCC(=NO)c1cc(C)ccc1O [HMLO, 2-hydroxy-5-methyllaurophenoxime]
[1]
  Absorption: improved clearly in vitro and in vivo in the presence of bile acids
[2]; pure HMLO, no auxiliary
  Solubility in water: insoluble
[2]; auxiliary Tween (R) 80 0.75%
  solubility: 130 µg/mL (≈ 426 µM)
[2]; auxiliary benzalkonium bromide 1.00%
  solubility: 24 µg/mL (≈ 78.6 µM)
[2]; auxiliary polyethylene glycol 6500 10.00%
  solubility: 1 µg/mL (≈ 3.27 µM)
[2]; auxiliary propylene glycol 1.00%
  solubility: 2.3 µg/mL (≈ 7.53 µM)
[2]; auxiliary sodium desoxycholate 0.75%
  solubility: 2750 µg/mL (≈ 9000 µM)
[3]; oily preparation
  Side effects on long-term treatment: occurrence of diarrhea
[3]; solutions and emulsions containing oils
  Bioavailability: the bioavailability can be increased
[4]; bile acids as auxiliary, compared with oil
  Absorption: distinctly exceeded by the use of bile acids
[4]; oil as auxiliary
  Absorption: clearly affected by the use of oil as auxiliary
[4]; without auxiliaries
  Absorption: not absorbed to a measurable extent

Reference: patent US5079265A, “Composition and methods for providing optimum bioavailability of the active ingredient 2-hydroxy-5-methyllaurophenoxime (HMLO)” (VEB Fahlberg-List Chemische und pharmazeutische Fabriken, priority 1989, dated 1992)
